Series [1] in a line: Catalepsy test (rat, vertical wire mesh, s.c.). As to conditions: sc. The text has this:
Evaluation of catalepsy was made according to Arnt (Eur. J. Pharmacol. 90, 47-55 (1983)). Catalepsy is an indicator of dopamine receptor blockade in vivo which corrolates to the clinical potency of the classical neuroleptics. However, catalepsy is also considered to indicate extrapyramidal side effects (Arnt, J. et al.; Neuropharrnacology 1981, 20, 1331-1334.
In this test test compound is given s.c. in different doses. The rat (170-240 g )is placed on a vertical wire mesh (mesh diameter 12 mm ). The rat is considered cataleptogenic if it remains immobile for more than 15 sec. The maximum number of rats showing catalepsy within the first 6 hours is recorded for each dose group. The results are recorded in fractions and an ED50 value is calculated by means of log-probit analysis.
The following corresponding 1-aryl-3-(1,2,3,6-tetrahydropyridyl)- or 1-aryl-3-(piperazinyl)indole derivatives which are analogues of Lu 23-174 and Compound No 12, respectively, were included in the test as comparing compounds:
A) 1-(4-Fluorophenyl)-3-[1-[2-(2-imidazolidinon-1-yl)ethyl]-1,2,3,6-tetrahydropyridin-4-yl]-5-trifluoromethyl-1H-indole
B) 5-Chloro-1-(4-fluorophenyl)-3-[1-[2-(2-imidazolidinon-1-yl)ethyl]-1,2,3,6- tetrahydro-4-pyridyl]-1H-indole
C) 5-Chloro-1-(4-fluorophenyl)-3-[4-[2-(2-imidazolidinon-1-yl)ethyl]-1-piperazinyl]-1H-indole

Series [2] can be described thus: Inhibition of isolation induced aggression in mice. It is filed as in vivo, mouse (male NMRI/BOM, SPF). Conditions: for ED50: Mus musculus. The text has this:
This test is used to evaluate the ability of a test substance to inhibit isolation induced aggressive behaviour in mice and is considered to be a test model for anxiolytic effect. The method is a modified version of the method described by McMillen et al. in Drug Develop. Research 12, 53-62, 1988.
Male mice (NMRI/BOM,SPF) weighing 16-18 g were used. The mice were housed individually in macrolon cages for 3 weeks before training to attack an intruder mouse. The mice were trained daily for a period of 1-2 weeks until a satisfactory respons was obtained. During the first days the mice were trained against each other. When a satisfactory respons was obtained group-housed mice were used as intruders. The time elapsed until attack was recorded. The intruder mouse was removed as soon as an attack had occured or after 180 sec. After the training period 60-70 percent of the mice had latencies of less than 10 sec.
The mice were pretested before drug treatment. Only mice attacking within 25 sec. were used. The animals were treated with test substance or saline. The mice were tested 30 or 120 minutes later, respectively. Nonspecific motoric effects were also recorded. 8 mice were used per group.
The results were stated as fractions of mice with attack latencies greater than or equal to a threshold value. As threshold values were used 180 and 90 sec. ED50 values were calculated by log-probit analysis.
The results are given in the following table as ED50 values in μmol/kg. The known compounds diazepam, buspirone and ritanserin were included in the test for the purpose of comparison.

Series [3] in a line: Light/dark discrimination test in rats. It is filed as in vivo, rat (Wistar WU). As to conditions: rat, s.c.; observation 2h. As for the experimental part: The test was carried out similarly to the test in mice described above, however modified in accodance with F. C. Colpaert et al., Psychopharmacology (1985) 86: 45-54. The test used Wistar WU rats.
Series [4] can be described thus: Light/dark discrimination test in mice (two compartment activity box). It is filed as in vivo, mouse (male albino BKW). Conditions: mouse, i.p. As for the experimental part:
This test was carried out in accordance with the method described in Costall et al. Br. J. Pharmacol. 90 275P (1987).
The test was conducted using a two compartment activity box in which the actions of anxiolytic compounds to reduce aversion against a brightly-lit environment may be readily detected. The box is designed as an open-top experimental box (45*27*27 cm) one third of which was partitioned from the rest, painted black and illuminated with red light. The remainder of the box was painted white and brightly illuminated (1000 W). The floor of each area was lined into squares. Behavioural changes were determined for each area from video recordings for periods of 40 min. Data obtained from dose groups of 5 animals (male albino BKW mice, 25-30 g ) were analysed using single factor analysis of variance, and Dunnett's t-test. Test compounds were given intrapentoneally 45 min before testing.
The results are given in the following Table 2 as minimum doses (mg/kg i.p.) tested showing effect (p<0.001). The behavioural change used were exploratory rearings and line crossings.
The known substances diazepam, and ondansetron were included in the test for comparison purposes.

The mark [5] stands for this setting: 0.5 h, attack latency threshold 90 sec., 30 min pretreatment, read-out: ED50, threshold 90 sec., 30 min pretreatment.
Setting [6] is: 0.5 h, attack latency threshold 180 sec., 30 min pretreatment, read-out: ED50, threshold 180 sec., 30 min pretreatment.
[7] abbreviates: 2 h, attack latency threshold 90 sec., 120 min pretreatment, read-out: ED50, threshold 90 sec., 120 min pretreatment.
Where [8] appears, read: 2 h, attack latency threshold 180 sec., 120 min pretreatment, read-out: ED50, threshold 180 sec., 120 min pretreatment.

Entries after “also recorded” stand apart in the source; their conditions may differ. Read-outs that look alike come from different tables or passages of the source.

Regarding `O=C1NCCN1CCN1CC=C(c2cn(-c3ccc(F)cc3)c3ccc(C(F)(F)F)cc23)CC1` [A, 1-(4-Fluorophenyl)-3-[1-[2-(2-imidazolidinon-1-yl)ethyl]-1,2,3,6-tetrahydropyridin-4-yl]-5-trifluoromethyl-1H-indole, reference compound], in series [1] (in vivo), the ED50 (commonly the dose at which the effect has come halfway, by size or by number of responders) at 6 h was 0.49 µmol/kg.

In the case of `O=C1NCCN1CCN1CC=C(c2cn(-c3ccc(F)cc3)c3ccc(Cl)cc23)CC1` [B, 5-Chloro-1-(4-fluorophenyl)-3-[1-[2-(2-imidazolidinon-1-yl)ethyl]-1,2,3,6-tetrahydro-4-pyridyl]-1H-indole, reference compound], in series [1] (in vivo), the ED50 at 6 h stood at 2.2 µmol/kg.

For the molecule `O=C1CC2(CCCC2)CC(=O)N1CCCCN1CCN(c2ncccn2)CC1` [Buspirone], the figures for the ED50 in series [2] (setting [5]) and in series [2] (setting [6]) were 9.6 µmol/kg and 5.4 µmol/kg, respectively.

For the molecule `O=C1NCCN1CCN1CCN(c2cn(-c3ccc(F)cc3)c3ccc(Cl)cc23)CC1` [C, 5-Chloro-1-(4-fluorophenyl)-3-[4-[2-(2-imidazolidinon-1-yl)ethyl]-1-piperazinyl]-1H-indole, reference compound], in series [1] (rat), the ED50 at 6 h is 4.5 µmol/kg.

For the molecule `O=C1OCCN1CCN1CCC(c2cn(-c3ccc(F)cc3)c3ccc(Cl)cc23)CC1` [Compound 2, 5-chloro-1-(4-fluorophenyl)-3-[1-[2-(2-oxazolidinon-1-yl)ethyl]-4-piperidyl]-1H-indole], the ED50 at 6 h in series [1] (rat) is more than 18 µmol/kg.

`CN1CCN(CCN2CCC(c3cn(-c4ccc(F)cc4)c4ccc(Cl)cc34)CC2)C1=O` [Compound 3, 5-chloro-1-(4-fluorophenyl)-3-[1-[2-(3-methyl-2-imidazolidinon-1-yl)ethyl]-4-piperidyl]1H-indole] registered an ED50 at 6 h in series [1] (in vivo) of 31 µmol/kg.

In series [1] (in vivo), `O=C1CCCN1CCN1CCC(c2cn(-c3ccc(F)cc3)c3ccc(Cl)cc23)CC1` [Compound 4, 5-chloro-1-(4-fluorophenyl)-3-[1-[2-(2-pyrrolidinon-1-yl)ethyl]-4-piperidyl]-1H-indole] came in with an ED50 at 6 h of 23 µmol/kg.

In turn, `O=C1NCCN1CCN1CCC(c2cn(-c3ccc(F)cc3)c3ccc(C(F)(F)F)cc23)CC1` [Compound 12, 1-(4-fluorophenyl)-3-[1-[2-(2-imidazolidinon-1-yl)ethyl]-4-piperidyl]-5-trifluomethyl-1H-indole] returned an ED50 at 6 h in series [1] (rat) of 38 µmol/kg.

As for `CC(C)N1CCN(CCN2CCC(c3cn(-c4ccc(F)cc4)c4ccc(Cl)cc34)CC2)C1=O` [Compound 14, 5-chloro-1-(4-fluorophenyl)-3-[1-[2-[3-(2-propyl)-2-imidazolidinon-1-yl]ethyl]-4-piperidyl]-1H-indole], the ED50 at 6 h in series [1] (rat) is more than 69 µmol/kg.

`O=C1NCCN1CCN1CCC(c2cn(-c3ccc(F)cc3)c3ccc(F)cc23)CC1` [Compound 16, 5-fluoro-1-(4-fluorophenyl)-3-[1-[2-(2-imidazolidinon-1-yl)ethyl]-4-piperidyl]-1H-indole] yielded an ED50 at 6 h in series [1] (rat) of more than 78 µmol/kg. In addition, the ED50 in series [2] (setting [7]) is 2.1 µmol/kg; in series [2] (setting [8]), 1.6 µmol/kg.

In turn, `Cc1ccc2c(c1)c(C1CCN(CCN3CCNC3=O)CC1)cn2-c1ccc(F)cc1` [Compound 24, 1-(4-fluorophenyl)-3-[1-[2-(2-imidazolidinon-1-yl)ethyl]-4-piperidyl]-5-methyl-1H-indole] yielded an ED50 at 6 h in series [1] (rat) of more than 95 µmol/kg. In addition, the 50% effective dose (ED50) in series [2] (setting [7]) came out at 3.2 µmol/kg; in series [2] (setting [8]) it was 2.5 µmol/kg.

With `CN1C(=O)CN=C(c2ccccc2)c2cc(Cl)ccc21` [Diazepam], the ED50 came to 26 µmol/kg in series [2] (0.5 h, read-out: ED50, threshold 90 sec., 30 min pretreatment) and 15 µmol/kg in series [2] (0.5 h, read-out: ED50, threshold 180 sec., 30 min pretreatment).

In the case of `O=C1NCCN1CCN1CCC(c2cn(-c3ccc(F)cc3)c3ccccc23)CC1` [Lu 23-086, 1-(4-fluorophenyl)-3-[1-[2-(2-imidazolidinon-1-yl)ethyl]-4-piperidyl]-1H-indole], the ED50 in series [2] (setting [7]) was 1.9 µmol/kg; in series [2] (setting [8]), 1.7 µmol/kg.

In the case of `O=C1NCCN1CCN1CCC(c2cn(-c3ccc(F)cc3)c3ccc(Cl)cc23)CC1` [Lu 23-174, 5-chloro-1-(4-fluorophenyl)-3-[1-[2-(2-imidazolidinon-1-yl)ethyl]-4-piperidyl]-1H-indole], the ED50 at 6 h in series [1] (rat) was more than 98 µmol/kg. Also, the “Effect in light/dark discrimination test in rats (active dose in words)” value in series [3] is on record as “showed effect in nano molar doses/kg”. In addition, the values for the ED50 in series [2] (setting [5]) and in series [2] (setting [6]) were 4.4 µmol/kg and 3.2 µmol/kg, respectively.

On to `Cc1nc2sccn2c(=O)c1CCN1CCC(=C(c2ccc(F)cc2)c2ccc(F)cc2)CC1` [Ritanserin], for which, in series [4], the “Effect in light/dark discrimination test in mice” value was “did not show effect; also recorded: inactive”. Further, the “Effect in light/dark discrimination test in rats (active dose in words)” value in series [3] is recorded as “only active in μmolar doses/kg”. In addition, the ED50 in series [2] (setting [5]) is more than 21 µmol/kg; in series [2] (setting [6]) it was more than 21 µmol/kg; in series [2] (setting [7]), more than 10 µmol/kg; in series [2] (setting [8]) it was more than 10 µmol/kg. In series [2] (mouse, in vivo), the “Effect in the aggression test” value is “showed no effect”.

The values above are taken from patent US5439922A, “Piperidyl-substituted indoles for treating anxiety” (H. Lundbeck A/S, priority 1990, dated 1995).
